Laboratory results: article PMC5342726, “Identification of small molecule inhibitors of ERCC1-XPF that inhibit DNA repair and potentiate cisplatin efficacy in cancer cells” (Oncotarget, 2016)
Like-named read-outs stand apart in the source and are kept apart here.

Legend:
[1] = biological target: T1, ERCC1-XPF (Homo sapiens, UniProt P07992+Q92889); assay: HTS fluorescence assay of ERCC1-XPF endonuclease activity; assay type: biochemical
T1 construct: made in house; host or cells: Sf9 insect cells, baculovirus (obtained from Aziz Sancar)
T1 sequence (Q92889 1-916): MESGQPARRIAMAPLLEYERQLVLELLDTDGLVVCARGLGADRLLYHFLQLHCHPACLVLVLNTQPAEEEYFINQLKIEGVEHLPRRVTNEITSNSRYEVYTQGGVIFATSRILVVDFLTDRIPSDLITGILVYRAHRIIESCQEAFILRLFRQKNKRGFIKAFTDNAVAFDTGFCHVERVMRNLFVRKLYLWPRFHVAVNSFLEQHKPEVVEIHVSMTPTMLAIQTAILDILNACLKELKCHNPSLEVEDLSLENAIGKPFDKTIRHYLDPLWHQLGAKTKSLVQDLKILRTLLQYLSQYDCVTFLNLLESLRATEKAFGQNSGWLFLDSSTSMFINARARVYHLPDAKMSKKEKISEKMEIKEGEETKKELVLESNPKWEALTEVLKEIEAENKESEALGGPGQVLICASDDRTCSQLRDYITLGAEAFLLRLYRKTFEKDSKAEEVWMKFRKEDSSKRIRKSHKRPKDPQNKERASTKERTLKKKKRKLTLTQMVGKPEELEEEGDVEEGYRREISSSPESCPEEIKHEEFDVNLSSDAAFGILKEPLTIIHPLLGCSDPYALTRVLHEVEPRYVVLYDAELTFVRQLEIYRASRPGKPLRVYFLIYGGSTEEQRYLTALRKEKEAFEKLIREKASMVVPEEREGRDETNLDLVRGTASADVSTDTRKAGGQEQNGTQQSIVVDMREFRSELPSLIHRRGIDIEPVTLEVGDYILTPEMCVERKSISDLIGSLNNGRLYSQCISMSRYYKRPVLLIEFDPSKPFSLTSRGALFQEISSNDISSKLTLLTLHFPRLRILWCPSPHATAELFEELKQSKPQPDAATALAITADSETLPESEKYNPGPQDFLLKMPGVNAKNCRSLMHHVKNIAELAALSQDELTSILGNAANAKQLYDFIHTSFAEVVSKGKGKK
T1 sequence (P07992 1-297): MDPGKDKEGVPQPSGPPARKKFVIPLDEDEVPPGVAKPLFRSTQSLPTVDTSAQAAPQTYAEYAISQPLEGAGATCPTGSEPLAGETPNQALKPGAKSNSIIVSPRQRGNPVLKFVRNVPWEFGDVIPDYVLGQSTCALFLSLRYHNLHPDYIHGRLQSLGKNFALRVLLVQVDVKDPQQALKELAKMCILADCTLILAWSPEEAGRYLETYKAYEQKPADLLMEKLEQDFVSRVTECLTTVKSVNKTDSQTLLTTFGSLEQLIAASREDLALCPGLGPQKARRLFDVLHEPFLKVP
Description: To screen for ERCC1-XPF inhibition, an existing in vitro assay was optimized to a 96-well plate format to allow for screening of compound libraries (NCI-DTP diversity set). These compounds and subsequent vialed compounds were from the Drug Synthesis and Chemistry Branch, Developmental Therapeutics Program, Division of Cancer Treatment and Diagnosis at the National Cancer Institute. We used purified ERCC1-XPF (Supplementary Figure S1) and describe the purification procedure in Supplementary Information. The initial cuvette-based assay was optimized for DNA, MgCl2 concentrations as well as the incubation time to be used in the fluorescence assay in a 96 well plate format (Supplementary Figure S2). The assay consists of a 10 nM DNA (Q+Fl substrate annealed, described below) and 7.5 nM ERCC1-XPF protein in buffer containing 50 mM Tris-HCl pH8.0, 2 mM MgCl2, 0.1 mM BSA, and 0.5 mM β-mercaptoethanol. For preliminary screening, 150 μL of DNA was added to each well and the fluorescence signal was measured at 525 nm following excitation at 485 nm. Compounds or controls were then added to individual wells for a total of 80 compounds on each plate and the fluorescent signal was re-measured. We initially ran the screen using 50 μM compound and then repeated using 10 μM compound. 16 controls were used per plate, which consisted of buffer alone, DNA alone, ERCC1-XPF alone, 10 nM fluorescein ssDNA (positive signal), and 10 nM Q-Fl DNA with 7.5 nM ERCC1-XPF (positive signal). 7.5 nM ERCC1-XPF was added to each well containing the compounds and DNA and incubated for 30 minutes at 37°C after which the fluorescent signal was measured again.
The synthetic DNA substrate mimics a native forked ssDNA-dsDNA substrate of ERCC1-XPF (Figure 1A). This forked DNA substrate has a dsDNA region (14 bases) and a region containing two ssDNA flaps (12 bases each). One 26-mer DNA oligonucleotide contains a site-specific fluorescein modification at the indicated position (Fl Oligo: 5' - GCCAGCGCTCGGAT(AminoC6dT)(FLSN) TTTTTTTTTTT). The semi-complementary strand was synthesized containing a DABCYL quencher (Q) molecule at the depicted position (Q Oligo: 5' - TTTTTTTTTTT (AminoC6dT)(Dabcyl) ATCCGAGCGCTGGC; Figure 1A). The fluorescein (*) molecule has an excitation peak centered at 485 nm and an emission peak centered at 525 nm. The quencher (Q) molecule is able to quench the fluorescence signal of the fluorescein when it is in close proximity. The design of the semi-duplex DNA substrate is such that the fluorescein and DABCYL quencher are directly opposite one another at the double-stranded and single-stranded DNA junction (Figure 1A). […] Upon cleavage by ERCC1-XPF, (~4-5 bases from the dsDNA-ssDNA) the fluorescein label on the cleaved DNA is released into solution and results in a significant increase in fluorescence as the quencher is no longer in close proximity. The DNA substrate is also incorporated with a restriction enzyme site (HhaI) within the duplex DNA that results in a cleavage pattern similar to ERCC1-XPF. This serves as a positive control and allows assessment of ERCC1-XPF cleavage product. This DNA substrate is used in the solution based fluorescence screening assay to screen for inhibitors of ERCC1-XPF endonuclease activity. In the 96 well platform, the Z factor was calculated to be ~0.87 indicating a highly robust assay and highly suitable for a HTS. A Molecular Devices Spectramax M5 plate reader was used for fluorescence detection. The DNA substrate was the same for gel-based assays besides the fluorescent/quencher modifications and 5'-labeling using γ-ATP^32. For the secondary screen, the reaction was setup in a tube with 10 nM DNA, 7.5 nM XPF-ERCC1, 20 U/ml of HhaI, or 7.5 nM XPG (Supplementary Figure S3A) in nuclease reaction buffer with compound titration and incubated at 37°C for 30 minutes. The reaction was stopped by chelating the metal in the buffer and read in the Spectramax M5 plate reader.

[2] = tested on: HhaI; assay: Gel-based nuclease assay, HhaI; assay type: biochemical; conditions: compound titration
[3] = tested on: H460 cells; assay: Cisplatin intrastrand adduct repair by ELISA; assay type: cell-based; conditions: 72 hours (last time point), compound 15 μM 2 h then cisplatin at IC90 2 h; relative to 0 hour
[4] = IC50s calculated by CompuSyn, SD from 3 plots, read-out: ERCC1-XPF IC50

| SMILES | IC50 [1, 4] [nM] | IC50 ([1]; read-out: 50% inhibition of ERCC1-XPF) [nM] | inhibition of HhaI nuclease activity, gel-based assay [2] | intrastrand adducts remaining [3] |
| --- | --- | --- | --- | --- |
| Oc1cc(O)c2c(c1)OC(c1ccc(O)c(O)c1)C(O)C2c1c(O)cc(O)c2c1OC(c1ccc(O)c(O)c1)C(O)C2 (stereo not shown) [NSC143099] | 22 ± 3 | ~22 | does not inhibit the nuclease activity | ~ 65% |
| Cc1ccc(S(=O)(=O)Oc2cc(S(=O)(=O)O)cc3cc(S(=O)(=O)O)cc(N)c23)cc1 [NSC16168] | 420 ± 112 | – | does not inhibit the nuclease activity | ~ 60% |
